{"source": "patent US12324827B2", "about": "“Combination therapy for the treatment of migraines” (The University of Chicago, priority 2019, dated 2025)", "key": {"[1]": {"settings": "within 30 minutes of N2B administration; cited from earlier work"}, "[2]": {"test_system": "cortical spreading depression", "assay": "Number of cortical spreading depressions evoked over 90 minutes", "format": "in vivo, rat", "settings": "CSD stimulus every nine minutes for 90 minutes, an hour after intravenous injection, n=3", "source_text": "Animals are stabilized for an hour under anesthesia (1.5% isoflurane in oxygen) after head sutures are removed, eyes coated with Artificial Tears and animals made ready for initiation and recording of CSD under deeper (5%) isoflurane in oxygen, which is then lowered back to 1.5% isoflurane in oxygen during CSD recordings. CSD is initiated as described above one to four hours after antibody infusion. All animals receive nine KCl injections. Then, isoflurane is raised to 5% and animals anesthetized with intraperitoneal ketamine and Xylazine followed quickly by euthanasia via intra-cardiac perfusion with 0.1 mL heparin (1,000 units/ml), then 250 ml of normal saline and finally 250 ml 4% paraformaldehyde in 0.2 M phosphate buffer. Brains plus upper cervical cord and trigeminal ganglia are harvested for measurement of c-fos immunostaining in the trigeminocervical complex and CGRP and oxidative stress (malondialdehyde) levels in the trigeminal ganglion ipsilateral to CSD. Animal groups and endpoints are defined below.\nFirst, the inventors confirmed that there was no significant difference in the number of evoked CSDs between groups (FIG. 16). Sham nasal delivery was, as reported (i.e., 50 μl succinate buffer delivered as 5 μl aliquots to alternating nostrils every two minutes) while under isoflurane inhalational anesthesia (Won and Kraig, 2020). […]"}, "trigeminal ganglion CGRP": {"test_system": "trigeminal ganglion CGRP", "assay": "CGRP immunostaining of trigeminal ganglion (V1) in naïve animals 24 hours after N2B IGF-1", "format": "in vivo, rat", "protocol": "24 hours later animals were re-anesthetized, brains harvested and processed for CGRP immunostaining of the TG. Images were obtained from each animal and image fluorescence intensity quantified via a digital imaging strategy. Three images were measured per animal and the averages recorded. Nasal delivery and image processing was completed while blinded to conditions. Experiments, immunostaining and imaging were done in pairs (i.e., sham and IGF-1) to reduce potential variability. […] This reduction was significant (p<0.001; alpha=0.05; power of 1.00). Scale bar=50 μm. […]\nThe inventors used computer-based and blinded semi-quantitative digital quantification of immunostaining metrics to test the ability of N2B IGF-1 to impact TS activation. […]\nImaging was performed using a Photometrics self-calibrating digital camera QuantEM-512SC camera (500×500 pixels; Photometrics, Tucson, AZ) run on MetaMorph software (v. 7.0.4; Molecular Devices, Sunnyvale, CA) under blinded conditions (as previously described (13, 20-22). Image exposure, camera gain and thresholding were uniformly set (i.e., equivalently for experimental and sham groups for each imaging metric (i.e., MDA, CGRP and c-fos). Resultant images were digitally stored as TIFF files for subsequent analyses that continued under blinded conditions where image integrated fluorescence intensity was registered using MetaMorph software for MDA and CGRP. […]"}}}
{"substance": "IGF-1: human recombinant IGF-1 (#191-G1; R&D Systems), 150 μg in 50 μL sodium succinate buffer, delivered nose-to-brain", "values": [{"measurement": "levels in the trigeminal ganglion relative to levels in the olfactory bulb", "setting": "[1]", "value": "~10", "unit": "fold"}, {"measurement": "number of CSDs evoked", "setting": "[2]", "value": "7±0.41"}, {"measurement": "reduction of CGRP levels in the trigeminal ganglion of naïve animals", "setting": "trigeminal ganglion CGRP; N2B IGF-1 150 μg versus sham, 24 hours, p<0.001", "value": "~75", "unit": "%"}, {"measurement": "natural logarithm ratio (IGF-1/sham) of CGRP immunostaining, naïve animals", "setting": "trigeminal ganglion CGRP; n=7/group", "value": "−1.66±0.32"}]}
